# According to patent US20090117563A1, “Identification of TRPML3 (MCOLN3) as a Salty Taste Receptor and Use in Assays for Identifying Taste (Salty) Modulators and/or Therapeutics that Modulate Sodium Transport, Absorption or Excretion and/or Aldosterone and/or Vasopressin Production or Release” (priority 2007, published 2009):
# Target: T1, A419P TRPML3 (Homo sapiens, UniProt Q8TDD5, A419P)
# T1 construct: expressed in transfected cells
# T1 sequence (Q8TDD5 1-553 A419P): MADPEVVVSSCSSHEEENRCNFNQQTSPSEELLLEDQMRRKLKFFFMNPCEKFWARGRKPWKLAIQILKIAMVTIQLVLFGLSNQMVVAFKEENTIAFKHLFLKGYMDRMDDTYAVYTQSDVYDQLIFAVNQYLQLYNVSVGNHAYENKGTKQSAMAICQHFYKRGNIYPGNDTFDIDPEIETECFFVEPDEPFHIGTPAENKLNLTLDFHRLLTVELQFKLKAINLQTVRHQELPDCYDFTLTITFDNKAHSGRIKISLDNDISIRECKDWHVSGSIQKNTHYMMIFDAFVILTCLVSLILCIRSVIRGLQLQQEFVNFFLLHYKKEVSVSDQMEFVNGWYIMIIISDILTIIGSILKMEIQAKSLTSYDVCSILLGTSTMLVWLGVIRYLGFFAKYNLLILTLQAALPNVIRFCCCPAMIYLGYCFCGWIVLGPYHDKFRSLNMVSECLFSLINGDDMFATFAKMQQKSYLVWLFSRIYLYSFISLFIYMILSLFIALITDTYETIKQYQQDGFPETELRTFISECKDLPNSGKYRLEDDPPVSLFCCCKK
# Experiment: Whole cell voltage clamp, A419P TRPML3 stably expressed in CHO cells
# Format: cell-based
# Conditions: 1 mM GdCl3 compared to buffer alone
# Excerpt: The whole cell voltage clamp technique is an electrophysiology method that measures the macroscopic electrical current flowing across the entire plasma membrane though protein channels. Live mammalian cells are placed in a special microscope chamber containing extracellular solution. Guided by a micromanipulator and under visual control, a small diameter glass pipette filled with an electrically conductive salt solution is first attached to the cell membrane using gentle negative pressure resulting in a high resistance gigaOhm seal. The membrane patch within the pipette is disrupted using further suction resulting in the whole cell patch clamp configuration. The whole cell patch clamp configuration allows the combined measurement of all ion channels proteins within the membrane or macroscopic current. Using the patch clamp amplifier in combination with the whole-cell patch clamp configuration allows the operator to control the voltage, or potential difference across the entire cell membrane, as well as the both the internal and external ionic composition of the cell. […]
structure (smiles),measurement,setting,value
"[Cl][Gd]([Cl])[Cl] [gadolinium, gadolinium chloride]",effect on inward current,listed as Gadolinium chloride,blocked
same,effect on inward current,listed as GdCl3,decrease in inward current
